Experimental findings from US6528618B1, “Anti-inflammatory peptides derived from C-reactive protein” (Yeda Research and Development Co. Ltd., priority 1997, dated 2003) are described below.

Entries after “also recorded” stand apart in the source; their conditions may differ. Where a SMILES comes first, the peptide text is derived from it.

Experiment [1] addresses T1, human leukocyte elastase (hLE) (Homo sapiens, UniProt P08246).
T1 construct: Neutrophils (1.4 billion) were isolated from whole blood obtained from a single healthy laboratory donor; from tissue; host or cells: neutrophils from whole blood of a single healthy donor
T1 sequence (P08246 30-247 limits assumed): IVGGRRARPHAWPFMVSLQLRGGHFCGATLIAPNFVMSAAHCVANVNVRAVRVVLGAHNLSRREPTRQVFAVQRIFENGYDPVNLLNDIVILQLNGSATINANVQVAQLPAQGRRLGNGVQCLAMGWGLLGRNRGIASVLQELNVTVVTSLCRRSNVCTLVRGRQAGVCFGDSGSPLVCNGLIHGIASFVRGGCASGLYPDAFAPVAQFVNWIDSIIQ
Briefly: In vitro inhibition of hLE (cleavage of MeOSuc-AAPV-NA). Format: biochemical. The conditions noted are these: for fold decrease in hLE inhibitory activity compared to peptide 6: relative to peptide 6. The procedure:
(§1) The enzymatic activity was assayed with MeOSuc-AAPV-NA for hLE determination and Suc-AAPF-NA for hCG determination (both in 100 mM Hepes buffer, pH 7.4, containing 0.05% of the […] detergent Brij-35). The activities of the individual enzymatic fractions were 100% free from cross-contamination. […] The fractions containing hLE and hCG were dialyzed each against 0.1% pyridinium acetate, pH 5.3, divided into 20 aliquots, lyophilized, and stored at −20 ° C. until use.
(v) Inhibition experiments with hLE: Peptides were dissolved in 100 mM Hepes buffer pH 7.4 containing 0.1% Brij-35 with 10%. DMSO to yield 300 μM solutions, which were used to make further dilutions with the same buffer, and 80 μL aliquots were added in duplicates to 96-well plates. The substrate, 600 μM MeOSuc-AAPV-NA in the same buffer with 5% DMSO, was added to each well in addition to the blank wells, and the plate was placed in the plate reader equilibrated to 37 C (Dynateck MR-6000). Lyophilized aliquots of hLE were dissolved in 1600 μL of 100 mM Hepes buffer without DMSO, and 80 μL of the enzyme solution was added to the peptides and substrate to initiate the reaction. […] The final volume was 240 μL containing: 5% DMSO, 1-100 μM of peptide, 200 μM substrate, and 0.75 μg (˜25 picomol) enzyme.
(viii) Calculations: For hLE, V is determined by fitting a linear equation to the first 6 time-points (10 min) of the kinetics data using the least squares method. […] Several inhibitor concentration in duplicates and two control wells were used to fit a linear equation to graphs of Vo/Vi−1 vs. [I] for each inhibitor using the least squares method (8 data points for each inhibitor). From calculating the error in the slope of the equation, the relative error for Ki was deduced:
Ki={slope*(1+[S]/Km)}^−1because Ki=[I]*{(1+[S]/Km)*(Vo/Vi−1)}^−1.
The hLE inhibitory capability of CRP-derived peptides was evaluated by inhibiting the enzymatic cleavage of MeOSuc-AAPV-NA as described in Materials and Methods (section v).

Experiment [2] deals with T2, human leukocyte cathepsin G (hCG) (Homo sapiens, UniProt P08311).
T2 construct: Neutrophils (1.4 billion) were isolated from whole blood obtained from a single healthy laboratory donor; from tissue; host or cells: neutrophils from whole blood of a single healthy donor
T2 sequence (P08311 21-243 limits assumed): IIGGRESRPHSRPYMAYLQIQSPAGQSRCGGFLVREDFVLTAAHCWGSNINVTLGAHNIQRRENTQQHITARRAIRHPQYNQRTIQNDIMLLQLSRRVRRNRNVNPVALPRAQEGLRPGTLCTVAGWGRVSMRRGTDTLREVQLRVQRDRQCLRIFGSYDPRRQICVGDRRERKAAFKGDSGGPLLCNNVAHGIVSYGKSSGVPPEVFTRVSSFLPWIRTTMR
The experiment in a line: In vitro inhibition of hCG (cleavage of Suc-AAPF-NA). Type of experiment: biochemical. The procedure: as §1
vi) Inhibition experiments with hCG: Similar conditions to hLE inhibition experiments were used except the substrate: 80 μL of 1.80 mM Suc-AAPF-NA. The enzyme was dissolved in 800 μL buffer, and the reaction was monitored every 6 min for 1 hour. The final volume was 240 μL containing: 5% DMSO, 1-100 μM peptide, 600 μM substrate, and 1.2 μg enzyme (about 40 picomol).
For hCG, V is determined by fitting a quadratic equation to the total kinetic data (60 min), using the least squares method and calculating V at t=0.
The hCG inhibitory capability of CRP-derived peptides was evaluated by inhibiting the enzymatic cleavage of Suc-AAPF-NA as described in Materials and Methods (section vi).

Setting [3] is: hLE Ki [μM], Table 1, substrate MeOSuc-AAPV-NA 200 μM, pH 7.4, 37 C.
The mark [4] stands for this setting: hCG Ki [μM], Table 1, substrate Suc-AAPF-NA 600 μM, pH 7.4.
[5] abbreviates: hLE Ki [μM], Table 2, substrate MeOSuc-AAPV-NA 200 μM, pH 7.4, 37 C.

Take `CC[C@H](C)[C@H](NC(=O)[C@H](CO)NC(=O)[C@H](Cc1ccc(O)cc1)NC(=O)CNC(=O)[C@H](CCCNC(=N)N)NC(=O)[C@@H](NC(=O)[C@H](CO)NC(=O)[C@H](CO)NC(=O)[C@H](CC(C)C)NC(=O)[C@H](CCC(=O)O)NC(=O)[C@@H](NC(=O)[C@H](Cc1ccc(O)cc1)NC(=O)[C@H](Cc1ccccc1)NC(=O)[C@H](Cc1c[nH]cn1)NC(=O)[C@@H](N)CC(C)C)[C@@H](C)O)[C@@H](C)O)C(=O)O` [Peptide 1, Leu-His-Phe-Tyr-Thr-Glu-Leu-Ser-Ser-Thr-Arg-Gly-Tyr-Ser-Ile] (H-LHFYTELSSTRGYSI-OH): the Ki in experiment [1] (setting [3]) and in experiment [2] (setting [4]) was > 200 µM throughout.
Consider `CC[C@H](C)[C@H](NC(=O)[C@H](CO)NC(=O)[C@H](Cc1ccc(O)cc1)NC(=O)CNC(=O)[C@H](CCCNC(=N)N)NC(=O)[C@@H](NC(=O)[C@H](CO)NC(=O)[C@H](CO)NC(=O)[C@H](CC(C)C)NC(=O)[C@@H](N)CCC(=O)O)[C@@H](C)O)C(=O)N[C@@H](Cc1ccccc1)C(=O)N[C@@H](CO)C(=O)N[C@@H](Cc1ccc(O)cc1)C(=O)N[C@@H](C)C(=O)N[C@H](C(=O)O)[C@@H](C)O` [Peptide 2, Glu-Leu-Ser-Ser-Thr-Arg-Gly-Tyr-Ser-Ile-Phe-Ser-Tyr-Ala-Thr] (H-ELSSTRGYSIFSYAT-OH), for which the Ki in experiment [1] (setting [3]) and in experiment [2] (setting [4]) was > 200 µM each time.
Take `CC[C@H](C)[C@H](NC(=O)[C@H](CO)NC(=O)[C@H](Cc1ccc(O)cc1)NC(=O)CNC(=O)[C@@H](N)CCCNC(=N)N)C(=O)N[C@@H](Cc1ccccc1)C(=O)N[C@@H](CO)C(=O)N[C@@H](Cc1ccc(O)cc1)C(=O)N[C@@H](C)C(=O)N[C@H](C(=O)N[C@@H](CCCCN)C(=O)N[C@@H](CCCNC(=N)N)C(=O)N[C@@H](CCC(N)=O)C(=O)N[C@@H](CC(=O)O)C(=O)N[C@@H](CC(N)=O)C(=O)O)[C@@H](C)O` [Peptide 3, Arg-Gly-Tyr-Ser-Ile-Phe-Ser-Tyr-Ala-Thr-Lys-Arg-Gln-Asp-Asn] (H-RGYSIFSYATKRQDN-OH): the Ki in experiment [1] (setting [3]) and in experiment [2] (setting [4]) was > 200 µM throughout.
Consider `CC[C@H](C)[C@H](NC(=O)[C@H](CC(C)C)NC(=O)[C@@H](NC(=O)[C@H](CCC(=O)O)NC(=O)[C@H](CC(N)=O)NC(=O)[C@H](CC(=O)O)NC(=O)[C@H](CCC(N)=O)NC(=O)[C@H](CCCNC(=N)N)NC(=O)[C@H](CCCCN)NC(=O)[C@@H](NC(=O)[C@H](C)NC(=O)[C@H](Cc1ccc(O)cc1)NC(=O)[C@H](CO)NC(=O)[C@@H](N)Cc1ccccc1)[C@@H](C)O)[C@@H](C)CC)C(=O)N[C@@H](Cc1ccccc1)C(=O)O` [Peptide 4, Phe-Ser-Tyr-Ala-Thr-Lys-Arg-Gln-Asp-Asn-Glu-Ile-Leu-Ile-Phe] (H-FSYATKRQDNEILIF-OH), for which the Ki in experiment [1] (setting [3]) and in experiment [2] (setting [4]) was > 200 µM throughout.
For `CC[C@H](C)[C@H](NC(=O)[C@H](CC(=O)O)NC(=O)[C@H](CCCCN)NC(=O)[C@H](CO)NC(=O)[C@H](Cc1c[nH]c2ccccc12)NC(=O)[C@H](Cc1ccccc1)NC(=O)[C@@H](NC(=O)[C@H](CC(C)C)NC(=O)[C@@H](NC(=O)[C@H](CCC(=O)O)NC(=O)[C@H](CC(N)=O)NC(=O)[C@H](CC(=O)O)NC(=O)[C@H](CCC(N)=O)NC(=O)[C@H](CCCNC(=N)N)NC(=O)[C@@H](N)CCCCN)[C@@H](C)CC)[C@@H](C)CC)C(=O)O` [Peptide 5, Lys-Arg-Gln-Asp-Asn-Glu-Ile-Leu-Ile-Phe-Trp-Ser-Lys-Asp-Ile] (H-KRQDNEILIFWSKDI-OH; N-terminus and C-terminus assumed), in experiment [1], the “hLE inhibitory activity (in words)” value is “two orders of magnitude less potent than peptide 6; also recorded: lowered the inhibitory capability by more than one order of magnitude”. Besides, the results for the Ki in experiment [1] (hLE inhibitory activity range) and in experiment [2] (hCG inhibitory activity range) were 50 to 100 µM and 150 to 200 µM, respectively.
Take `CC[C@H](C)[C@H](NC(=O)[C@H](CC(=O)O)NC(=O)[C@H](CCCCN)NC(=O)[C@H](CO)NC(=O)[C@H](Cc1c[nH]c2ccccc12)NC(=O)[C@H](Cc1ccccc1)NC(=O)[C@@H](NC(=O)[C@H](CC(C)C)NC(=O)[C@@H](NC(=O)[C@@H](N)CC(=O)O)[C@@H](C)CC)[C@@H](C)CC)C(=O)NCC(=O)N[C@@H](Cc1ccc(O)cc1)C(=O)N[C@@H](CO)C(=O)N[C@@H](Cc1ccccc1)C(=O)N[C@H](C(=O)O)[C@@H](C)O` [Peptide 18, Asp-Ile-Leu-Ile-Phe-Trp-Ser-Lys-Asp-Ile-Gly-Tyr-Ser-Phe-Thr] (H-DILIFWSKDIGYSFT-OH; N-terminus and C-terminus assumed): the “fold decrease in hLE inhibitory activity compared to peptide 6” value in experiment [1] is on record as 10 fold.
With `CC[C@H](C)[C@H](NC(=O)[C@H](CC(=O)O)NC(=O)[C@H](CCCCN)NC(=O)[C@@H]1CCCN1C(=O)[C@H](Cc1c[nH]c2ccccc12)NC(=O)[C@H](Cc1ccccc1)NC(=O)[C@@H](NC(=O)[C@H](CC(C)C)NC(=O)[C@@H](NC(=O)[C@@H](N)CCC(=O)O)[C@@H](C)CC)[C@@H](C)CC)C(=O)NCC(=O)N[C@@H](Cc1ccc(O)cc1)C(=O)N[C@@H](CO)C(=O)N[C@@H](Cc1ccccc1)C(=O)N[C@H](C(=O)O)[C@@H](C)O` [Peptide 19, Glu-Ile-Leu-Ile-Phe-Trp-Pro-Lys-Asp-Ile-Gly-Tyr-Ser-Phe-Thr] (H-EILIFWPKDIGYSFT-OH; N-terminus and C-terminus assumed), the “hLE inhibitory activity (in words)” value in experiment [1] was “two orders of magnitude loss of inhibitory activity”. Besides, the Ki in experiment [1] (setting [5]) was > 200 µM.
Consider `CC[C@H](C)[C@H](NC(=O)CNC(=O)[C@H](Cc1ccc(O)cc1)NC(=O)[C@H](CO)NC(=O)[C@H](Cc1ccccc1)NC(=O)[C@@H](N)[C@@H](C)O)C(=O)N[C@@H](CC(=O)O)C(=O)N[C@@H](CCCCN)C(=O)N[C@@H](CO)C(=O)N[C@@H](Cc1c[nH]c2ccccc12)C(=O)N[C@@H](Cc1ccccc1)C(=O)N[C@H](C(=O)N[C@@H](CC(C)C)C(=O)N[C@H](C(=O)N[C@@H](CCC(=O)O)C(=O)O)[C@@H](C)CC)[C@@H](C)CC` [Peptide 24, Thr-Phe-Ser-Tyr-Gly-Ile-Asp-Lys-Ser-Trp-Phe-Ile-Leu-Ile-Glu] (H-TFSYGIDKSWFILIE-OH; N-terminus and C-terminus assumed), for which the “fold decrease in hLE inhibitory activity compared to peptide 6” value in experiment [1] stood at 30 fold.
As for `CC[C@H](C)[C@H](NC(=O)[C@H](CC(=O)O)NC(=O)[C@H](C)NC(=O)[C@H](CO)NC(=O)[C@H](Cc1c[nH]c2ccccc12)NC(=O)[C@H](Cc1ccccc1)NC(=O)[C@@H](NC(=O)[C@H](CC(C)C)NC(=O)[C@@H](NC(=O)[C@@H](N)CCC(=O)O)[C@@H](C)CC)[C@@H](C)CC)C(=O)O` [Peptide 25, Glu-Ile-Leu-Ile-Phe-Trp-Ser-Ala-Asp-Ile] (H-EILIFWSADI-OH; N-terminus and C-terminus assumed), in experiment [1], the “hLE inhibitory activity (in words)” value was “slightly more potent than peptide 14”. The compound also came in with an inhibition constant (Ki) in experiment [1] (setting [5]) of 3 ± 0.5 µM.
For `CC[C@H](C)[C@H](NC(=O)[C@H](CC(=O)O)NC(=O)[C@@H](NC(=O)[C@H](CO)NC(=O)[C@H](Cc1c[nH]c2ccccc12)NC(=O)[C@H](Cc1ccccc1)NC(=O)[C@@H](NC(=O)[C@H](CC(C)C)NC(=O)[C@@H](NC(=O)[C@@H](N)CCC(=O)O)[C@@H](C)CC)[C@@H](C)CC)C(C)C)C(=O)O` [Peptide 26, Glu-Ile-Leu-Ile-Phe-Trp-Ser-Val-Asp-Ile] (H-EILIFWSVDI-OH; N-terminus and C-terminus assumed), the “hLE inhibitory activity (in words)” value in experiment [1] is “slightly more potent than peptide 14”.

The Ki is the equilibrium dissociation constant of an inhibitor or competing ligand from its target. A higher Ki goes with lower affinity.
